Data as given in patent publication US12037345B2, “Heterobicyclic compounds for inhibiting the activity of SHP2” (TAIHO PHARMACEUTICAL CO., LTD., priority 2018, dated 2024).
Where a name gives a salt, the structure may show the parent alone. Read-outs that look alike come from different tables or passages of the source.

Legend:
SHP2 = SHP2 (Homo sapiens (Human), UniProt Q06124); assay: SHP2 Biochemical Assay (DiFMUP conversion, pIRS1-activated)
Outline: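 Human SHP2 (10 pM) pre-incubated 30 min with compound and […] pIRS1 activating peptide, then 50 μM DiFMUP added; buffer 25 mM Bis-Tris propane pH 7.0, 150 mM NaCl, 5% DMSO. Fluorescence rate (ex 360/em 450 nm) over 30 min; IC50 by four-parameter fit, averaged across experiments.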

[1] = system: pERK (phospho-p44/42 MAPK Thr202/Tyr204) in HCC827 cells; assay: Cellular pERK Inhibition Assay, Method B (PathScan phospho-p44/42 MAPK sandwich ELISA); format: cell-based; details: Homo sapiens, Table 19, head prints unit as "-M", read-out: pERK (IC50) Method B
Method: Cellular pERK Inhibition Assay
HCC827 cells (ATCC, Manassas, USA) were seeded into 96-well plates at a density of 1×10^5 cells/well in RPMI medium supplemented with 10% FBS and incubated 24h. Compounds were diluted first in DMSO and then into serum-free medium, before being added to cells in triplicate to give a final concentration of 0.1% DMSO. Plates were incubated at 37° C. for the indicated time in a humidified atmosphere of 5% CO2 in air.
Following compound treatment, medium was removed and cells were lysed by adding 50 μL of lysis buffer (Cell Signalling Technology, Beverly, USA) to each well. Plates were then incubated at room temperature for 25 minutes with shaking. pERK levels were measured in lysates using the PathScan(Registered Trademark) phospho-p44/42 MAPK (Thr202/Tyr204) sandwich ELISA (Cell Signalling Technology, Beverly, USA) as per kit instructions. Briefly, 50 μL of cell lysate was added to 50 μL of ELISA sample diluent in a 96-well ELISA plate and incubated overnight at 4° C. Following washing, 100 μL of detection antibody was added per well and the plates incubated for 1 hour at 37° C. Plates were washed again and incubated at 37° C. for 30 minutes with 100 μl of HRP-linked secondary antibody per well. After final washing, 100 μL per well of TMB substrate was added and plates incubated at 37° C. to develop colour. Colour development was stopped by the addition of 100 μL per well of stop solution. Plates were read at 450 nm on a SpectraMax Gemini reader (Molecular Devices, Uckfield, UK).
The average signal from blank wells (no cells added) was subtracted from the signals from each sample well. Levels of pERK were then expressed as “percent of control”, using DMSO treated samples as control. Dose response curves were generated using GraphPad Prism Version 6 (GraphPad Software, La Jolla, USA) and fitted using the four parameter logistic curve fit.

[2] = system: pERK (phospho-p44/42 ERK) in HCC827 cells; assay: Cellular pERK Inhibition Assay, Method A (In-Cell Western); format: cell-based; details: Homo sapiens
Outline: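 HCC827 cells in RPMI/10% FBS were treated with compounds in serum-free medium (0.2% DMSO final) at 37 °C for the indicated time, in quadruplicate. Fixed cells were immunostained for phospho-p44/42 ERK and read by infrared imaging. Blank-subtracted signal was expressed as % of DMSO control; IC50 from four-parameter logistic fit, averaged across experiments.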

[3] = Table 19, head prints unit as "-M"
[4] = Table 19, head prints unit as "-M", read-out: pERK (IC50) Method A
[5] = Table 20, read-out: pERK (IC50, μM) Method A

Chain of SHP2 (Q06124 whole entry): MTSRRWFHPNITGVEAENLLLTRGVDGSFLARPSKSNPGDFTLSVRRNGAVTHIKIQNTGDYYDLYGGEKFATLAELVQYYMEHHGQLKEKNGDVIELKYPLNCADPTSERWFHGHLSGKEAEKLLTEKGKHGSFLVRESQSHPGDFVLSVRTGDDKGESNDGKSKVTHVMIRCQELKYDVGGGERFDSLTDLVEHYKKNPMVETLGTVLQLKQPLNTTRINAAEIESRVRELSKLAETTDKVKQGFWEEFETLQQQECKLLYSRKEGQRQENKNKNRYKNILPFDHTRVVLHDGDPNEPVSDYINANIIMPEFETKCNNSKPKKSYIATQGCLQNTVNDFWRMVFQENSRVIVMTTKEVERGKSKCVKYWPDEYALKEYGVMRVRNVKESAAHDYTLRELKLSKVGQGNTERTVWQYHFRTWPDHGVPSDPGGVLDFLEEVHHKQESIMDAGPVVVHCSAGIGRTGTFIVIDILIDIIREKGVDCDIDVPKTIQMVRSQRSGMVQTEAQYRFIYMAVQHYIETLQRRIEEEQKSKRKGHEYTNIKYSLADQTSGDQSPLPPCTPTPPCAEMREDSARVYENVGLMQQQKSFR

SMILES | IC50 (SHP2; [3]) [nM] | IC50 [1] [nM] | IC50 [2, 4] [µM] | IC50 (SHP2; Table 20) [nM] | IC50 [2, 5] [µM]
Cn1cc2c(Cl)c(-c3c[nH]c4nc(N5[C@@H]6CC[C@@H](N)[C@H]5CC6)n(C)c(=O)c34)ccc2n1 (racemic) [Example 152, rac-2-[(1R,2R,5R)-2-amino-8-azabicyclo[3.2.1]octan-8-yl]-5-(4-chloro-2-methyl-2H-indazol-5-yl)-3-methyl-3H,4H,7H-pyrrolo[2,3-d]pyrimidin-4-one] | 29 | 660 | – | – | –
CCn1nc2ccc(-c3n[nH]c4nc(N5[C@H]6CC[C@@H]5[C@H](NC)C6)n(C)c(=O)c34)c(Cl)c2c1Cl [Example 128, 3-(3,4-dichloro-2-ethyl-2H-indazol-5-yl)-5-methyl-6-((1R,2R,4S)-2-(methylamino)-7-azabicyclo[2.2.1]heptan-7-yl)-1,5-dihydro-4H-pyrazolo[3,4-d]pyrimidin-4-one] | 11 | – | 0.16 | – | –
Cn1cc2c(Cl)c(-c3c[nH]c4nc(N5[C@H]6CC[C@@H]5[C@@H](F)[C@H](N)C6)n(C)c(=O)c34)ccc2n1 [Example 129, 2-((1R,2S,3R,5S)-3-amino-2-fluoro-8-azabicyclo[3.2.1]octan-8-yl)-5-(4-chloro-2-methyl-2H-indazol-5-yl)-3-methyl-3,7-dihydro-4H-pyrrolo[2,3-d]pyrimidin-4-one] | 69 | – | 0.98 | – | –
Cn1cc2c(Cl)c(-c3c[nH]c4nc(N5[C@@H]6CC[C@H]5[C@H](F)[C@@H](N)C6)n(C)c(=O)c34)ccc2n1 [Example 130, 2-((1S,2R,3S,5R)-3-amino-2-fluoro-8-azabicyclo[3.2.1]octan-8-yl)-5-(4-chloro-2-methyl-2H-indazol-5-yl)-3-methyl-3,7-dihydro-4H-pyrrolo[2,3-d]pyrimidin-4-one] | 63 | – | 0.8 | – | –
Cn1cc2c(Cl)c(-c3c[nH]c4nc(N5[C@H]6CC[C@@H]5[C@H](F)[C@H](N)C6)n(C)c(=O)c34)ccc2n1 [Example 131, 2-((1R,2R,3R,5S)-3-amino-2-fluoro-8-azabicyclo[3.2.1]octan-8-yl)-5-(4-chloro-2-methyl-2H-indazol-5-yl)-3-methyl-3,7-dihydro-4H-pyrrolo[2,3-d]pyrimidin-4-one] | 28 | – | 0.46 | – | –
Cn1cc2c(Cl)c(-c3c[nH]c4nc(N5[C@@H]6CC[C@H]5[C@@H](F)[C@@H](N)C6)n(C)c(=O)c34)ccc2n1 [Example 132, 2-((1S,2S,3S,5R)-3-amino-2-fluoro-8-azabicyclo[3.2.1]octan-8-yl)-5-(4-chloro-2-methyl-2H-indazol-5-yl)-3-methyl-3,7-dihydro-4H-pyrrolo[2,3-d]pyrimidin-4-one] | 15 | – | 0.25 | – | –
CCn1nc2ccc(-c3c[nH]c4nc(N5[C@H]6CC[C@@H]5[C@H](N)C6)n(C)c(=O)c34)c(Cl)c2c1C#N [Example 159, 5-(2-((1R,2R,4S)-2-Amino-7-azabicyclo[2.2.1]heptan-7-yl)-3-methyl-4-oxo-4,7-dihydro-3H-pyrrolo[2,3-d]pyrimidin-5-yl)-4-chloro-2-ethyl-2H-indazole-3-carbonitrile] | 3.5 | – | 0.15 | – | –
Cn1nc2ccc(-c3n[nH]c4nc(N5[C@@H]6CC[C@H]5C[C@@H](N)C6)n(C)c(=O)c34)c(Cl)c2c1Cl [Example 160, 6-(endo-3-amino-8-azabicyclo[3.2.1]octan-8-yl)-3-(3,4-dichloro-2-methyl-2H-indazol-5-yl)-5-methyl-1,5-dihydro-4H-pyrazolo[3,4-d]pyrimidin-4-one, hydrochloride salt] | – | – | – | 8.5 | 0.23
Cn1nc2ccc(-c3n[nH]c4nc(N5[C@@H]6CC[C@H]5C[C@@](C)(N)C6)n(C)c(=O)c34)c(Cl)c2c1Cl [Example 161, 6-(endo-3-amino-3-methyl-8-azabicyclo[3.2.1]octan-8-yl)-3-(3,4-dichloro-2-methyl-2H-indazol-5-yl)-5-methyl-1,5-dihydro-4H-pyrazolo[3,4-d]pyrimidin-4-one] | – | – | – | 12 | 0.26
Cn1nc2ccc(-c3n[nH]c4nc(N5CC[C@H](N)[C@H](F)C5)n(C)c(=O)c34)c(Cl)c2c1Cl [Example 162, 6-((3R,4S)-4-amino-3-fluoropiperidin-1-yl)-3-(3,4-dichloro-2-methyl-2H-indazol-5-yl)-5-methyl-1,5-dihydro-1H-pyrazolo[3,4-d]pyrimidin-4-one] | – | – | – | 42 | 0.81
Cn1nc2ccc(-c3c[nH]c4nc(N5[C@H]6CC[C@@H]5[C@@H](F)[C@@H](N)C6)n(C)c(=O)c34)c(Cl)c2c1Cl [Example 163, 2-((1R,2S,3S,5S)-3-amino-2-fluoro-8-azabicyclo[3.2.1]octan-8-yl)-5-(3,4-dichloro-2-methyl-2H-indazol-5-yl)-3-methyl-3,7-dihydro-4H-pyrrolo[2,3-d]pyrimidin-4-one] | – | – | – | 2 | 0.012
CN[C@H]1C[C@H]2CC[C@@H]1N2c1nc2[nH]cc(-c3ccc4nn(C)cc4c3Cl)c2c(=O)n1C [Example 165, 5-(4-chloro-2-methyl-2H-indazol-5-yl)-3-methyl-2-((1S,2S,4R)-2-(methylamino)-7-azabicyclo[2.2.1]heptan-7-yl)-3,7-dihydro-4H-pyrrolo[2,3-d]pyrimidin-4-one] | – | – | – | 84 | 1.4
COc1cnc2ccc(-c3c[nH]c4nc(N5[C@H]6CC[C@@H]5[C@H](N)C6)n(C)c(=O)c34)c(Cl)c2n1 [Example 169, 2-((1R,2R,4S)-2-amino-7-azabicyclo[2.2.1]heptan-7-yl)-5-(5-chloro-3-methoxyquinoxalin-6-yl)-3-methyl-3,7-dihydro-4H-pyrrolo[2,3-d]pyrimidin-4-one] | – | – | – | 3.3 | 0.073
CN(C)c1cnc2ccc(-c3c[nH]c4nc(N5[C@H]6CC[C@@H]5[C@H](N)C6)n(C)c(=O)c34)c(Cl)c2n1 [Example 170, 2-((1R,2R,4S)-2-amino-7-azabicyclo[2.2.1]heptan-7-yl)-5-(5-chloro-3-(dimethylamino)quinoxalin-6-yl)-3-methyl-3,7-dihydro-4H-pyrrolo[2,3-d]pyrimidin-4-one] | – | – | – | 3 | 0.016
Cn1nc2ccc(-c3c[nH]c4nc(N5C[C@H]6CC[C@@H]5[C@@H]6N)n(C)c(=O)c34)c(F)c2c1Cl [Example 174, 2-((1R,4R,7R)-7-amino-2-azabicyclo[2.2.1]heptan-2-yl)-5-(3-chloro-4-fluoro-2-methyl-2H-indazol-5-yl)-3-methyl-3,7-dihydro-4H-pyrrolo[2,3-d]pyrimidin-4-one] | – | – | – | 3 | 0.021
Cn1c(N2[C@@H]3CC[C@H]2C[C@@H](N)C3)nc2[nH]cc(-c3ccc4nccnc4c3Cl)c2c1=O [Example 176, 2-(endo-3-amino-8-azabicyclo[3.2.1]octan-8-yl)-5-(5-chloroquinoxalin-6-yl)-3-methyl-3,7-dihydro-4H-pyrrolo[2,3-d]pyrimidin-4-one] | – | – | – | 77 | 0.66
CCN[C@@H]1C[C@@H]2CC[C@H]1N2c1nc2[nH]nc(-c3ccc4nn(C)c(Cl)c4c3Cl)c2c(=O)n1C [Example 177, 3-(3,4-dichloro-2-methyl-2H-indazol-5-yl)-6-((1R,2R,4S)-2-(ethylamino)-7-azabicyclo[2.2.1]heptan-7-yl)-5-methyl-1,5-dihydro-4H-pyrazolo[3,4-d]pyrimidin-4-one] | – | – | – | 95 | 1.4
COCCn1cc2c(Cl)c(-c3c[nH]c4nc(N5[C@H]6CC[C@@H]5[C@H](N)C6)n(C)c(=O)c34)ccc2n1 [Example 178, 2-((1R,2R,4S)-2-amino-7-azabicyclo[2.2.1]heptan-7-yl)-5-(4-chloro-2-(2-methoxyethyl)-2H-indazol-5-yl)-3-methyl-3,7-dihydro-4H-pyrrolo[2,3-d]pyrimidin-4-one] | – | – | – | 5 | 0.071
CC(C)N[C@@H]1C[C@@H]2CC[C@H]1N2c1nc2[nH]nc(-c3ccc4nn(C)c(Cl)c4c3Cl)c2c(=O)n1C [Example 179, 3-(3,4-Dichloro-2-methyl-2H-indazol-5-yl)-6-((1R,2R,4S)-2-(isopropylamino)-7-azabicyclo[2.2.1]heptan-7-yl)-5-methyl-1,5-dihydro-4H-pyrazolo[3,4-d]pyrimidin-4-one] | – | – | – | 150 | 2.1
